Patent publication US20230357271A1, “MACROCYCLIC COMPOUND” (Asahi Kasei Pharma Corporation, priority 2020, published 2023)
Where two headings read alike, the source gives them in different places.

Legend:
[1] = 14-membered ring
[2] = target: human IRAK-4 (Homo sapiens (Human), UniProt Q9NWZ3); assay: Measurement of human IRAK-4 inhibitory activity (TR-FRET); assay type: biochemical; settings: 1 nM IRAK-4, 0.5 µM peptide substrate, 10 µM ATP, 23° C., 30 minutes
Protocol: For the measurement of the activity of the human IRAK-4 (Invitrogen, Cat. PV3362), phosphorylation of the IRAK-4 peptide substrate (biotin-KKKKRFSFKKSFKC) by the enzyme in the presence of 10 µM ATP (Sigma-Aldrich, Cat. A7699) was measured by the TR-FRET method. The enzymatic reaction was performed in a reaction buffer containing 50 mM HEPES (pH 7.2), 1 mM DTT, 0.1 mM Na3VO4, 5 mM MgCl2, 1 mM MnCl2, and 0.1% bovine serum albumin. For the measurement of the IRAK-4 inhibitory activity, a test compound was added to the reaction buffer containing 1 nM IRAK-4, 0.5 µM peptide substrate, and 10 µM ATP, and the mixture was incubated at 23° C. for 30 minutes. Then, a detection solution containing an antibody labeled with europium cryptate (0.3 µg/mL, the antibody was prepared by using the IRAK-4 peptide substrate as the antigen), streptavidin-XL665 (2 µg/mL, CisBio, Cat. 610SAXLB), 50 mM HEPES (pH 7.2), 0.1% BSA, 120 mM KF, and 66.7 mM EDTA (all the concentrations of the reagents are final concentrations) was added to terminate the reaction, and then the mixture was further incubated at 23° C. for 60 minutes. Fluorescence intensity was measured at wavelengths of 665 nm and 620 nm with a microplate reader, and the enzymatic activity was calculated as the ratio of fluorescence intensities at 665 nm and 620 nm (665 nm/620 nm).
When the measurement was performed in multiplicate, the results are represented with average values.

[3] = test system: human acute monocytic leukemia cell strain THP-1; assay: LPS-stimulated TNFα production inhibition test using THP-1 cells; assay type: cell-based; settings: LPS 2.5 ng/mL, TNFα by HTRF
Protocol: By the THP-1 assay, influence of a test compound on the TNFα production induced by LPS stimulation can be evaluated. The THP-1 cells (ATCC, Cat. TIB-202) were inoculated on a 96-well plate at a density of 1 × 10^5 cells/160 µL/well, a test compound was added in a volume of 20 µL, and the plate was incubated at 37° C. for 1 hour in a 5% CO2 incubator. Then, LPS in a volume of 20 µL (final concentration 2.5 ng/mL, Sigma, Cat. L2630) was added, and the plate was further incubated for 4 hours. After the incubation, the plate was centrifuged, and 100 µL of the supernatant was taken from each well, and used for evaluation of the amount of TNFα using HTRF (Cisbio, Cat. 62TNFPEB). In the measurement of the amount of TNFα, the supernatant was diluted twice with the medium, and then added to wells of a 384-well plate in a volume of 10 µL, then anti-TNFα-cryptate (5 µL), and anti-TNFα-XL665 (5 µL) were added, and the plate was left standing overnight. The fluorescence intensity ratio for the wavelengths of 620 and 665 nm (620 nm/665 nm) was measured with a microplate reader, and the amount of TNFα in the supernatant was calculated by using a calibration curve. The TNFα production suppression ratio observed with no addition of LPS was defined to be 100%, the TNFα production suppression ratio observed with no addition of the test compound was defined to be 0%, and IC50 of the test compound was calculated by using the 4-parameter logistic model of the data analysis software XLfit (ID Business Solutions Ltd.).
When the measurement was performed in multiplicate, the results are represented with average values. The values were rounded to the fourth decimal place.

Chain of human IRAK-4 (Q9NWZ3 whole entry): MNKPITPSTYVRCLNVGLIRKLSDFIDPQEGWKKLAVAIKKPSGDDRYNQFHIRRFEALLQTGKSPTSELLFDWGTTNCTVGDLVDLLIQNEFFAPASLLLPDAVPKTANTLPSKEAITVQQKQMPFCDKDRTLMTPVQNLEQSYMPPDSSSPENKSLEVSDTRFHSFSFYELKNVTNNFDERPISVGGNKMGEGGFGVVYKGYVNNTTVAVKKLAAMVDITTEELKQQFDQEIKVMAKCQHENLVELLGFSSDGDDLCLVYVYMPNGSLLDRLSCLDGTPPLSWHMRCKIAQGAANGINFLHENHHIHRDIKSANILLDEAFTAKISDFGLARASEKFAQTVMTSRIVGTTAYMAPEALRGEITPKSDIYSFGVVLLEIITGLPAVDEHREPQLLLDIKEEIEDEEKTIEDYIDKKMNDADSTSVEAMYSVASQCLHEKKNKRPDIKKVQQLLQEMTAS

Row | SMILES | IC50 [2] [nM] | IC50 ([3]; Homo sapiens, THP-1, 4 h) [µM] | further results
1 | CC(C)(C)OC(=O)N1CC[C@H]2C[C@H]1C(=O)NCCCCc1c(OCc3ccccc3)ccc3ncc(cc13)N2 | – | – | ring closure, yield of all isomers (from CC(C)(C)OC(=O)N1CC[C@H](N)C[C@H]1C(=O)NCCCCc1c(OCc2ccccc2)ccc2ncc(Br)cc12, cn_pd bond, tBuBrettPhos Pd G3 / phosphazene base P2-Et, toluene, 29.3 mM, 25.0 °C): 39%
2 | CC(C)(C)OC(=O)N1CC[C@H]2C[C@H]1C(=O)NCCCOc1c(OCc3ccccc3)ccc3ncc(cc13)O2 | – | – | ring closure, isolated yield ([1]; from CC(C)(C)OC(=O)N1CC[C@@H](O)C[C@H]1C(=O)NCCCOc1c(OCc2ccccc2)ccc2ncc(O)cc12, ether bond, PPh3/DTBAD, toluene, 11.0 mM, 1.5 h): 72%
3 | CC1CC2C[C@@H](C(=O)NCCC=Cc3c(OCc4ccccc4)ccc4ncc(cc34)N2)N1C (stereo partly shown) | – | – | ring closure, isolated yield ([1]; from CC1CC(N)C[C@@H](C(=O)NCC/C=C/c2c(OCc3ccccc3)ccc3ncc(Br)cc23)N1C, cn_pd bond, Pd2(dba)3/XPhos/NaOPh, 1,4-dioxane, 97.4 mM, 14.0 h): 75%
4 | CC(C)(C)OC(=O)N1CC[C@H]2C[C@H]1C(=O)OCCCOc1c(OCc3ccccc3)ccc3ncc(cc13)N2 | – | – | ring closure, yield of all isomers (from CC(C)(C)OC(=O)N1CC[C@H](N)C[C@H]1C(=O)OCCCOc1c(OCc2ccccc2)ccc2ncc(Br)cc12, cn_pd bond, tBuXPhos Pd G3 / Cs2CO3, 1,4-dioxane, 98.8 mM, 120.0 °C, 72.0 h): 7%; ring closure, isolated yield ([1]; from CC(C)(C)OC(=O)N1CC[C@H](N)C[C@H]1C(=O)OCCCOc1c(OCc2ccccc2)ccc2ncc(Br)cc12, cn_pd bond, tBuXPhos Pd G3/Cs2CO3, 1,4-dioxane, 98.8 mM, 120.0 °C, 72.0 h): 7%
5 | CC(C)(C)OC(=O)N1CC[C@H]2C[C@H]1C(=O)NCC(F)COc1c(OCc3ccccc3)ccc3ncc(cc13)N2 (stereo partly shown) | – | – | ring closure, yield of all isomers (from CC(C)(C)OC(=O)N1CC[C@H](Nc2cnc3ccc(OCc4ccccc4)c(O)c3c2)C[C@H]1C(=O)NCC(F)CO, ether bond, PPh3 / di-tert-butyl azodicarboxylate, toluene, 4.76 mM, 25.0 °C, 1.0 h): 67%; ring closure, isolated yield ([1]; from CC(C)(C)OC(=O)N1CC[C@H](Nc2cnc3ccc(OCc4ccccc4)c(O)c3c2)C[C@H]1C(=O)NCC(F)CO, ether bond, PPh3/DTBAD, toluene, 4.84 mM, 25.0 °C, 1.0 h): 67%
6 | CCCOCc1ncc(-c2ccc3ncc4cc3c2OCC(F)CNC(=O)[C@@H]2C[C@H](CC(C)N2C)N4)cn1 (stereo partly shown) [a-02-01] | 2.33 | 0.012 | –
7 | CC1CC2C[C@@H](C(=O)NCC/C=C/c3c(OCc4ccccc4)ccc4ncc(cc34)N2)N1C (stereo partly shown) | – | – | ring closure, yield of all isomers (from CC1CC(N)C[C@@H](C(=O)NCC/C=C/c2c(OCc3ccccc3)ccc3ncc(Br)cc23)N1C, cn_pd bond, Pd2(dba)3 / XPhos / sodium phenoxide, 1,4-dioxane, 97.4 mM, 101.0 °C, 14.0 h): 75%
8 | CN1CC[C@H]2C[C@H]1C(=O)NCC1(CCC1)COc1c(-c3cncnc3)ccc3ncc(nc13)N2 [a-01-29] | 4.14 | 0.15 | –
9 | CN1CC[C@H]2C[C@H]1C(=O)NCC1(CC1)COc1c(-c3cncnc3)ccc3ncc(nc13)N2 [a-01-03] | 2.11 | 0.045 | –
10 | CN1CC[C@H]2C[C@H]1C(=O)OCCCOc1c(-c3cnc(CO)nc3)ccc3ncc(cc13)N2 [a-02-15] | 2.23 | 0.064 | –
11 | Cc1ncc(-c2ccc3ncc4cc3c2OCC(F)CNC(=O)C2(C)CC(CCN2C)N4)cn1 (stereo not shown) [a-02-23, 7-Fluoro-3^1,3^2-dimethyl-1^6-(2-methylpyrimidin-5-yl)-9-oxa-2,5-diaza-1 (3,5)-qunolina-3(4,2)-piperidinacyclononaphan-4-one] | 9.7 | 0.716 | –
12 | CCN1CC[C@H]2C[C@H]1C(=O)NCCCOc1c(-c3cnc(CO)s3)ccc3ncc(nc13)N2 [a-01-16] | 1.25 | 0.092 | –
13 | Cc1ncc(-c2ccc3ncc4cc3c2OCC(F)CNC(=O)[C@@H]2C[C@H](CCN2C)N4)cn1 (stereo partly shown) [a-02-16] | 0.81 | 0.065 | –
14 | CN1CCC2CC1(C)C(=O)NCC(F)COc1c(OCc3ccccc3)ccc3ncc(cc13)N2 (stereo not shown) | – | – | ring closure, yield of all isomers (from CN1CCC(N)CC1(C)C(=O)NCC(F)COc1c(OCc2ccccc2)ccc2ncc(Br)cc12, cn_pd bond, Pd2(dba)3 / XPhos / sodium phenoxide, 1,4-dioxane, 107.0 mM, 101.0 °C, 14.0 h): 32%
15 | CN1CC[C@H]2C[C@H]1C(=O)NCC(F)(F)COc1c(-c3cnc(CO)s3)ccc3ncc(nc13)N2 [a-01-22] | 0.89 | 0.118 | –
16 | Cc1ncc(-c2ccc3ncc4cc3c2OCC(F)CNC(=O)[C@@H]2C[C@H](CCN2C(C)C)N4)cn1 (stereo partly shown) [a-02-13] | 1.12 | 0.048 | –

Second part, led by results:

Row | IC50 [2] [nM] | IC50 ([3]; Homo sapiens, THP-1, 4 h) [µM] | SMILES | further results
17 | 3.28 | 0.227 | COCc1ncc(-c2ccc3ncc4nc3c2OCCCNC(=O)[C@@H]2C[C@H](CCN2C)N4)cn1 [a-01-45] | –
18 | 4.52 | 0.189 | CCCOCc1ncc(-c2ccc3ncc4nc3c2OCCC(CC)CNC(=O)[C@@H]2C[C@H](CCN2C)N4)cn1 (stereo partly shown) [a-01-37] | –
19 | 8.86 | 0.182 | CC1CNC(=O)[C@@H]2C[C@H](CCN2C)Nc2cnc3ccc(-c4cncnc4)c(c3n2)OC1 (stereo partly shown) [a-01-36] | –
20 | 6.73 | 0.199 | CCCOCc1ncc(-c2ccc3ncc4nc3c2OCCCN(C)C(=O)[C@@H]2C[C@H](CCN2C)N4)cn1 [a-01-38] | –
21 | 2.95 | 0.076 | CN1CC[C@H]2C[C@H]1C(=O)NCCCOc1c(-c3cnc(COC4CCC4)nc3)ccc3ncc(nc13)N2 [a-01-13] | –
22 | 3.21 | 0.117 | Cc1ncc(-c2ccc3ncc4cc3c2OCCCOC(=O)[C@@H]2C[C@H](CCN2C)N4)cn1 [a-02-20] | –
23 | 6.61 | 0.246 | Cc1ncc(-c2ccc3ncc4nc3c2OCCCN(C)C(=O)[C@@H]2C[C@H](CCN2C)N4)cn1 [a-01-42] | –
24 | 4.43 | 0.141 | Cc1ncc(-c2ccc3ncc4nc3c2OCC2(CC2)CNC(=O)[C@@H]2C[C@H](CCN2C)N4)cn1 [a-01-25] | –
25 | 1.41 | – | CCCOCc1ncc(-c2ccc3ncc4nc3c2OCC(F)CNC(=O)[C@@H]2C[C@H](CCN2C)N4)cn1 (stereo partly shown) [a-01-26] | IC50 ([3]; 4 hours): 0.142 µM
26 | 1.49 | 0.057 | CCCOCc1ncc(-c2ccc3ncc4nc3c2OCCCNC(=O)[C@@H]2C[C@H](CCN2C)N4)cn1 [a-01-07, (3^2S,3^4S)-3^1-Methyl-1^7-(2-(propoxymethyl)pyrimidin-5-yl)-9-oxa-2,5-diaza-1(2,8)-quinoxalina-3(4,2)-piperidinacyclononaphan-4-one] | –
27 | 1.84 | 0.104 | CN1CCCOc2c(-c3cnc(CO)s3)ccc3ncc(nc23)N[C@H]2CCN(C)[C@@H](C2)C1=O [a-01-18] | –
28 | 2.29 | 0.117 | CN1CC[C@H]2C[C@H]1C(=O)NCCCOc1c(-c3cnc(COCC4CC4)nc3)ccc3ncc(nc13)N2 [a-01-21] | –
29 | 10 | – | Cc1ncc(-c2ccc3ncc4nc3c2OCC(F)CNC(=O)[C@@H]2C[C@H](CCN2C)N4)cn1 (stereo partly shown) [a-01-41] | IC50 ([3]; 4 hours): 0.293 µM
30 | 1.63 | 0.028 | CN1CC[C@H]2C[C@H]1C(=O)NCCCOc1c(-c3ccns3)ccc3ncc(nc13)N2 [a-01-01] | –
31 | 2.8 | 0.162 | CN1CC[C@H]2C[C@H]1C(=O)NCCCCOc1c(-c3cncnc3)ccc3ncc(nc13)N2 [a-01-30] | –
32 | 1.59 | 0.165 | CN1CC[C@H]2C[C@H]1C(=O)NCCCOc1c(-c3cnc(CO)nc3)ccc3ncc(nc13)N2 [a-01-32] | –
33 | 4.24 | 0.048 | CCCOCc1ncc(-c2ccc3ncc4nc3c2OCC2(CC2)CNC(=O)[C@@H]2C[C@H](CCN2C)N4)cn1 [a-01-04] | –
